Source: patent US20050032912A1, “Anaesthetic compositions and method for their administration” (priority 2001, published 2005)
Entries after “also recorded” stand apart in the source; their conditions may differ.

Assays:
Solubility in water = format: physicochemical
Protocol: Other anaesthetic agents are administered to the patient by means of injection. Although generally less desirable than inhaled agents for reasons of ease of administration and the maintenance of a controlled amount of the anaesthetic composition, these are used in an variety of applications. For example, propofol is a widely used anaesthetic administered to the patient by injection. The anaesthetic agents is propofol contained in an appropriate formulation. […] Propofol must be thoroughly distributed in any anaesthetic formulation, and generally brought in to solution, because the administration of propofol itself in to the patient's blood stream can cause severe problems.
Preparation of anaesthetic formulations of the invention is generally straightforward.
In addition, some poloxamers require increased temperatures in order to satisfactorily micellise in water. In general, concentrations of poloxamer of about 10% w/v are useful in the present invention, but concentrations of poloxamers, whether single or mixed, can be selected as appropriate and will generally be above 0.5% and below about 20%. More preferred concentrations are from 5% to 15%. Some poloxamers will begin to gel at higher concentrations, and any poloxamer concentration that gels at body temperature, especially when in association with propofol, should be avoided for injection purposes.

[1] = tested on: patients who have Parkinson's disease; conditions: cited from earlier work
[2] = cited from earlier work
[3] = Solubilisation of propofol in aqueous poloxamer solution (micellar)

CC(C)c1cccc(C(C)C)c1O [propofol]
solubility in water (in words) (Solubility in water): virtually insoluble in water; also recorded: not readily soluble in water | duration of tremor reduction ([1]; after propofol anaesthesia): up to three | effect on tremors (in words) ([1]; after-effect of propofol anaesthesia): reduction in tremors | half-life in the bloodstream ([2]; bloodstream, patient): nine | concentration in the body ([2]; three days after propofol anaesthesia): less than 0.02 mg/kg bodyweight | maximum concentration of propofol ([3]; 10% w/w poloxamer in water, poloxamer P237): about 3.2% | propofol dissolved ([3]; poloxamer P407): 1.7%
